Measurements: paper PMC4437653, “Biochemical, Kinetic, and Spectroscopic Characterization of Ruegeria pomeroyi DddW—A Mononuclear Iron-Dependent DMSP Lyase” (PLoS ONE, 2015)

B1: Ruegeria pomeroyi DSS-3 DddW (DMSP lyase), N-terminally His-tagged, apo form (enzyme, UniProt Q5LW89 1-152, looked up)
chain: MTAMLDSFATDLTAATSLHQPGNLPHPPHAIDAENVPLSGGTDPTYGEVRWRTLINGTEAAPRDMVLGIAEFGPGHQLRPHRHTPPEFYLGLEGSGIVTIDGVPHEIRAGVALYIPGDAEHGTVAGPEGLRFAYGFASASFEAIEYRFTASA
notes: DddW, DMSP lyase of Ruegeria pomeroyi DSS-3 (locus SPO0453), 16.9 kDa without tag; No removal of the His10 tag is described; also called apo-DddW; SPO0453; source: E. coli BL21Star DE3 pLysS, purified (Ni-NTA), dialysed against EDTA to give apo-DddW

How the values were obtained:
DddW [1] = target: T1, DddW (Ruegeria pomeroyi, UniProt Q5LW89, E87A); test: HPLC of acrylate product at […] nm, […] min end point; assay type: biochemical; conditions: 2 uM enzyme, 2 uM Fe(II), 10 mM DMSP, anaerobic
T1 construct: E. coli BL21Star DE3 pLysS; EDTA-treated apo enzyme loaded with metal; homodimer; cloning primers encode MTAMLDSF at the N-terminus and RFTASA at the C-terminus
T1 sequence (Q5LW89 whole entry E87A): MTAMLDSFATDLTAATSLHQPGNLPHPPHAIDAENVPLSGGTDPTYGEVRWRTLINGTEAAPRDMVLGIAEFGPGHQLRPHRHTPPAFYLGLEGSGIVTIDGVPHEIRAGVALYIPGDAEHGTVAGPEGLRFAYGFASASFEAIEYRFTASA

DddW [2] = target: T2, DddW (Ruegeria pomeroyi, UniProt Q5LW89, H81A); test: HPLC of acrylate product at […] nm, […] min end point; assay type: biochemical; conditions: 2 uM enzyme, 2 uM Fe(II), 10 mM DMSP, anaerobic
T2 construct: E. coli BL21Star DE3 pLysS; EDTA-treated apo enzyme loaded with metal; homodimer; cloning primers encode MTAMLDSF at the N-terminus and RFTASA at the C-terminus
T2 sequence (Q5LW89 whole entry H81A): as the sequence (Q5LW89 whole entry E87A) above, with H81A, A87E counted along it

DddW [3] = target: T3, DddW (Ruegeria pomeroyi, UniProt Q5LW89, H83A); test: HPLC of acrylate product at […] nm, […] min end point; assay type: biochemical; conditions: 2 uM enzyme, 2 uM Fe(II), 10 mM DMSP, anaerobic
T3 construct: E. coli BL21Star DE3 pLysS; EDTA-treated apo enzyme loaded with metal; homodimer; cloning primers encode MTAMLDSF at the N-terminus and RFTASA at the C-terminus
T3 sequence (Q5LW89 whole entry H83A): as the sequence (Q5LW89 whole entry E87A) above, with H83A, A87E counted along it

DddW [4] = target: T4, DddW (Ruegeria pomeroyi, UniProt Q5LW89, H121A); test: HPLC of acrylate product at […] nm, […] min end point; assay type: biochemical; conditions: 2 uM enzyme, 2 uM Fe(II), 10 mM DMSP, anaerobic
T4 construct: E. coli BL21Star DE3 pLysS; EDTA-treated apo enzyme loaded with metal; homodimer; cloning primers encode MTAMLDSF at the N-terminus and RFTASA at the C-terminus
T4 sequence (Q5LW89 whole entry H121A): as the sequence (Q5LW89 whole entry E87A) above, with A87E, H121A counted along it

[5] = target: the molecule itself; test: SEC; as-isolated apo-DddW (19 mg/mL) on Superdex 200 16/600 in storage buffer (50 mM HEPES pH 7.5, 100 mM NaCl, 10% glycerol), 0.6 mL/min; mass by comparison with standards
purified protein = substrate: C[S+](C)CCC(=O)[O-]; test: purified protein; assay type: biochemical, Ruegeria pomeroyi; conditions: 2 uM apo-DddW with 2 uM Fe(II), pH 8.0, 50 mM HEPES, 20 mM NaCl, room temperature, anaerobic, DMSP 0.5-35 mM

Molecule | no acrylate product formed (DddW [1]) | no acrylate product formed (DddW [2]) | no acrylate product formed (DddW [3]) | no acrylate product formed (DddW [4]) | stoichiometry N [5] | Km (purified protein) | kcat (purified protein)
C[S+](C)CCC(=O)[O-] [DMSP] | none of the DddW mutants formed the acrylate product compared to the wild-type enzyme | none of the DddW mutants formed the acrylate product compared to the wild-type enzyme | none of the DddW mutants formed the acrylate product compared to the wild-type enzyme | none of the DddW mutants formed the acrylate product compared to the wild-type enzyme |  |  | 
B1 |  |  |  |  | 2 | 8.68 ± 0.73 mM | 18.25 s⁻¹
